Measured values published in patent US20250241893A1, “TREATMENT OF COGNITIVE DYSFUNCTION” (GH RESEARCH IRELAND LIMITED, priority 2022, published 2025).

Legend:
[1] = system: Salmonella typhimurium (TA98, TA100, TA1535 and TA1537); assay: Bacterial mutation test in Salmonella typhimurium; assay type: cell-based; settings: up to 5000 μg/plate, absence and presence of rat liver S-9
Method: (§1) These conditions included treatments at concentrations up to 5000 μg/plate (the maximum recommended concentration according to current regulatory guidelines), in the absence and in the presence of a rat liver metabolic activation system (S-9).

[2] = system: patients with treatment-resistant major depressive disorder (TRD); assay: Phase 1/2 clinical trial of inhaled 5-MeO-DMT in TRD; settings: for Patients with at least one ADR: Part A, n=4, all mild, resolved spontaneously
Method: Patients were assigned to different groups. In the context of the present invention, the group who received a single, 12 mg dose and the group who underwent an intra-day individualized dosing regimen (IDR) that allowed for multiple, escalating doses (6 mg, 12 mg and 18 mg) within a single day, driven by the intensity of the patient-reported psychedelic experience are of interest.
The data gathered include the assessment of the treated patients against several scales including the Montgomery-Asberg Depression Rating Scale (MADRS) and the Brief Psychiatric Rating Scale (BPRS).
The MADRS item that is of particular relevance to impaired concentration and memory is “concentration difficulties”. This item represents difficulties in collecting one's thoughts mounting to incapacitating lack of concentration and is scored on a scale ranging from 0 to 6. The score is 0 if the patient has no difficulties in concentrating. The score is 2 in case of occasional difficulties in collecting one's thoughts. A score of 4 is assigned in case of difficulties in concentrating and sustaining thought which reduces ability to read or hold a conversation. The score is 6 if the patient is unable to read or converse without great difficulty.
The MADRS item “reduced sleep” represents the experience of reduced duration or depth of sleep compared to the subject's own normal pattern when well. A score of 0 is assigned when the subject sleeps as usual. […] A score of 4 means that sleep is reduced or broken by at least two hours. A score of 6 means less than two or three hours sleep.
This trial was designed in two parts. Part A was an open-label, single-arm, single-dose Phase 1 trial with two dose levels (12 mg (n=4) and 18 mg (n=4)). […] The primary endpoint of Part B was to assess the effects on the severity of depression, as assessed by the proportion of patients in remission on day seven after dosing, defined as a MADRS total score of less than or equal to 10.

[3] = Pharmacokinetics of 5-MeO-DMT and bufotenine after inhalation; assay type: in vivo, human; settings: 3 hours after inhalation, whole dose range (6 mg, 12 mg, 18 mg)
Method: Blood samples were obtained at 1; 2; 4; 7; 10; 15; 20; 30; 45 min and 1; 1.5; 2; 3; 4 hours after administration. […] PK parameters were generated by algebraic analysis of the concentration versus time plots for each individual. The analysis was carried out using the software Phoenix WinNonlin 6.3.

[4] = system: Escherichia coli (WP2 uvrA pKM101); assay: Bacterial mutation test in Escherichia coli; assay type: cell-based; settings: up to 5000 μg/plate, absence and presence of rat liver S-9
Method: as §1

[5] = 12 mg n=4, sum of patient scores, 2 hours after dose, baseline 16
[6] = 12 mg n=4, sum of patient scores, day 1, baseline 13
[7] = 12 mg n=4, sum of patient scores, day 1, baseline 16
[8] = 12 mg n=4, sum of patient scores, day 7, baseline 12
[9] = 12 mg n=4, sum of patient scores, day 7, baseline 13
[10] = 12 mg n=4, sum of patient scores, day 7, baseline 16
[11] = IDR n=8, sum of patient scores, day 1, baseline 25
[12] = IDR n=8, sum of patient scores, day 7, baseline 25
[13] = IDR n=8, sum of patient scores, day 7, baseline 30

Compound: COc1ccc2[nH]cc(CCN(C)C)c2c1 [5-MeO-DMT]
- Mutation induction [1]: did not induce mutation
- MADRS Suicidal Thoughts improvement ([2]; 12 mg n=4, sum of patient scores, 2 hours after dose, baseline 8): 5
- MADRS Inner Tension improvement ([2]; 12 mg n=4, sum of patient scores, 2 hours after dose, baseline 13): 11
- MADRS Concentration Difficulties improvement [2, 5]: 9
- MADRS Inability to Feel improvement [2, 5]: 7
- MADRS Lassitude improvement [2, 5]: 6
- MADRS Pessimistic Thoughts improvement [2, 5]: 8
- BPRS Blunted Affect improvement ([2]; 12 mg n=4, sum of patient scores, 3 hours after dose, baseline 11): 3
- BPRS Emotional Withdrawal improvement ([2]; 12 mg n=4, sum of patient scores, 3 hours after dose, baseline 13): 2
- BPRS Tension improvement ([2]; 12 mg n=4, sum of patient scores, 3 hours after dose, baseline 14): 5
- BPRS Guilt Feelings improvement ([2]; 12 mg n=4, sum of patient scores, 3 hours after dose, baseline 18): 9
- BPRS Anxiety improvement ([2]; 12 mg n=4, sum of patient scores, 3 hours after dose, baseline 25): 14
- MADRS Suicidal Thoughts improvement ([2]; 12 mg n=4, sum of patient scores, day 1, baseline 8): 3
- BPRS Blunted Affect improvement ([2]; 12 mg n=4, sum of patient scores, day 1, baseline 11): 5
- MADRS Reduced Sleep improvement ([2]; 12 mg n=4, sum of patient scores, day 1, baseline 12): 2
- BPRS Emotional Withdrawal improvement [2, 6]: 5
- MADRS Inner Tension improvement [2, 6]: 10
- BPRS Tension improvement ([2]; 12 mg n=4, sum of patient scores, day 1, baseline 14): 8
- MADRS Concentration Difficulties improvement [2, 7]: 14
- MADRS Inability to Feel improvement [2, 7]: 15
- MADRS Lassitude improvement [2, 7]: 16
- MADRS Pessimistic Thoughts improvement [2, 7]: 9
- BPRS Guilt Feelings improvement ([2]; 12 mg n=4, sum of patient scores, day 1, baseline 18): 13
- BPRS Anxiety improvement ([2]; 12 mg n=4, sum of patient scores, day 1, baseline 25): 19
- MADRS Suicidal Thoughts improvement ([2]; 12 mg n=4, sum of patient scores, day 7, baseline 8): 1
- BPRS Blunted Affect improvement ([2]; 12 mg n=4, sum of patient scores, day 7, baseline 11): 6
- MADRS Reduced Sleep improvement [2, 8]: 6
- MADRS Reduced Sleep percentage improvement [2, 8]: 50.00%
- BPRS Emotional Withdrawal improvement [2, 9]: 7
- MADRS Inner Tension improvement [2, 9]: 8
- BPRS Tension improvement ([2]; 12 mg n=4, sum of patient scores, day 7, baseline 14): 8
- MADRS Concentration Difficulties improvement [2, 10]: 13
- MADRS Inability to Feel improvement [2, 10]: 15
- MADRS Lassitude improvement [2, 10]: 13
- MADRS Pessimistic Thoughts improvement [2, 10]: 8
- BPRS Guilt Feelings improvement ([2]; 12 mg n=4, sum of patient scores, day 7, baseline 18): 13
- BPRS Anxiety improvement ([2]; 12 mg n=4, sum of patient scores, day 7, baseline 25): 19
- MADRS Suicidal Thoughts improvement ([2]; IDR n=8, sum of patient scores, 2 hours after last dose, baseline 11): 8
- MADRS Inner Tension improvement ([2]; IDR n=8, sum of patient scores, 2 hours after last dose, baseline 26): 15
- MADRS Lassitude improvement ([2]; IDR n=8, sum of patient scores, 2 hours after last dose, baseline 27): 17
- MADRS Pessimistic Thoughts improvement ([2]; IDR n=8, sum of patient scores, 2 hours after last dose, baseline 28): 21
- MADRS Concentration Difficulties improvement ([2]; IDR n=8, sum of patient scores, 2 hours after last dose, baseline 30): 19
- MADRS Inability to Feel improvement ([2]; IDR n=8, sum of patient scores, 2 hours after last dose, baseline 36): 24
- BPRS Emotional Withdrawal improvement ([2]; IDR n=8, sum of patient scores, 3 hours after last dose, baseline 13): 5
- BPRS Blunted Affect improvement ([2]; IDR n=8, sum of patient scores, 3 hours after last dose, baseline 15): 4
- BPRS Tension improvement ([2]; IDR n=8, sum of patient scores, 3 hours after last dose, baseline 16): 5
- BPRS Guilt Feelings improvement ([2]; IDR n=8, sum of patient scores, 3 hours after last dose, baseline 34): 20
- BPRS Anxiety improvement ([2]; IDR n=8, sum of patient scores, 3 hours after last dose, baseline 37): 18
- MADRS Suicidal Thoughts improvement ([2]; IDR n=8, sum of patient scores, day 1, baseline 11): 10
- BPRS Emotional Withdrawal improvement ([2]; IDR n=8, sum of patient scores, day 1, baseline 13): 5
- BPRS Blunted Affect improvement ([2]; IDR n=8, sum of patient scores, day 1, baseline 15): 7
- BPRS Tension improvement ([2]; IDR n=8, sum of patient scores, day 1, baseline 16): 5
- MADRS Reduced Sleep improvement [2, 11]: 13
- MADRS Reduced Sleep percentage improvement [2, 11]: 52.00%
- MADRS Inner Tension improvement ([2]; IDR n=8, sum of patient scores, day 1, baseline 26): 20
- MADRS Lassitude improvement ([2]; IDR n=8, sum of patient scores, day 1, baseline 27): 22
- MADRS Pessimistic Thoughts improvement ([2]; IDR n=8, sum of patient scores, day 1, baseline 28): 24
- MADRS Concentration Difficulties improvement ([2]; IDR n=8, sum of patient scores, day 1, baseline 30): 29
- BPRS Guilt Feelings improvement ([2]; IDR n=8, sum of patient scores, day 1, baseline 34): 23
- MADRS Inability to Feel improvement ([2]; IDR n=8, sum of patient scores, day 1, baseline 36): 34
- BPRS Anxiety improvement ([2]; IDR n=8, sum of patient scores, day 1, baseline 37): 21
- MADRS Suicidal Thoughts improvement ([2]; IDR n=8, sum of patient scores, day 7, baseline 11): 8
- BPRS Emotional Withdrawal improvement ([2]; IDR n=8, sum of patient scores, day 7, baseline 13): 5
- BPRS Blunted Affect improvement ([2]; IDR n=8, sum of patient scores, day 7, baseline 15): 7
- BPRS Tension improvement ([2]; IDR n=8, sum of patient scores, day 7, baseline 16): 6
- MADRS Reduced Sleep improvement [2, 12]: 16
- MADRS Reduced Sleep percentage improvement [2, 12]: 64.00%
- MADRS Inner Tension improvement ([2]; IDR n=8, sum of patient scores, day 7, baseline 26): 14
- MADRS Lassitude improvement ([2]; IDR n=8, sum of patient scores, day 7, baseline 27): 24
- MADRS Pessimistic Thoughts improvement ([2]; IDR n=8, sum of patient scores, day 7, baseline 28): 25
- MADRS Concentration Difficulties improvement [2, 13]: 21
- MADRS Concentration Difficulties percentage improvement [2, 13]: 70.00%
- BPRS Guilt Feelings improvement ([2]; IDR n=8, sum of patient scores, day 7, baseline 34): 24
- MADRS Inability to Feel improvement ([2]; IDR n=8, sum of patient scores, day 7, baseline 36): 30
- BPRS Anxiety improvement ([2]; IDR n=8, sum of patient scores, day 7, baseline 37): 20
- SAEs ([2]; Part A (12 mg and 18 mg)): No SAEs were reported
- Patients with at least one ADR ([2]; 12 mg single dose): 3 of 4
- Patients with at least one ADR ([2]; 18 mg single dose): 3 of 4
- Detectability in the plasma [3]: no longer detectable
- Mutation induction [4]: did not induce mutation
